US20200181212A1 (priority 2014, published 2020)

Assay: physchem
Settings: cells or culture medium

For CC(C)C[C@@H]1NC(=O)[C@H](CO)NC(=O)[C@@H]2CSSC[C@@H]3NC(=O)[C@H]([C@@H](C)O)NC(=O)[C@H](C)NC(=O)[C@H](CC(=O)O)NC(=O)[C@H](CC(=O)O)NC(=O)[C@H](CSSC[C@H](NC(=O)[C@H](Cc4ccc(O)cc4)NC(=O)[C@@H](N)CCC(N)=O)C(=O)N[C@@H](C(C)C)C(=O)N4CCC[C@H]4C(=O)N[C@@H](C(C)C)C(=O)N[C@@H](CC(=O)O)C(=O)N[C@@H](CCC(N)=O)C(=O)N4CCC[C@H]4C(=O)N2)NC(=O)[C@H](CSSC[C@@H](C(=O)N[C@@H](CCCNC(=N)N)C(=O)N[C@@H](C)C(=O)O)NC(=O)[C@H](Cc2ccc(O)cc2)NC(=O)[C@H](Cc2ccc(O)cc2)NC(=O)[C@H](C(C)C)NC(=O)[C@H]([C@@H](C)O)NC(=O)[C@H](Cc2c[nH]cn2)NC(=O)CNC(=O)[C@H](CC(N)=O)NC(=O)[C@H](CCC(=O)O)NC(=O)[C@H](CC(N)=O)NC(=O)[C@H](CCCNC(=N)N)NC(=O)[C@H](CCC(=O)O)NC(=O)[C@H](CCC(N)=O)NC(=O)[C@H]([C@@H](C)O)NC3=O)NC(=O)[C@@H]2CCCN2C(=O)[C@H](CCC(N)=O)NC(=O)[C@H]([C@@H](C)O)NC(=O)[C@H](CC(N)=O)NC1=O (single isomer, unassigned) [Peak 1], the remaining at 24 h was 5.6%.
